Test results published in US6589945B1, “Use of sterolsulfates as active substances for producing means to inhibit serin proteases” (Cognis Deutschland GmbH & Co. KG, priority 1996, dated 2003).

Test system: Elastase
Assay: Elastase-inhibiting effect of sterol derivatives
Type: biochemical
From the text: The elastase-inhibiting effect of various sterol derivatives was investigated in the concentration range from 2.5 to 1000 ppm.

Compound | Elastase-inhibiting effect (2.5 ppm inhibitor) | Elastase-inhibiting effect (5 ppm inhibitor) | Elastase-inhibiting effect (12.5 ppm inhibitor) | Elastase-inhibiting effect (500 ppm inhibitor) | Elastase-inhibiting effect (1000 ppm inhibitor)
Phytosterol succinate [Example C2] | 0 %-rel | 0 %-rel | 0 %-rel | 0 %-rel | 0 %-rel
CC(=O)O[C@H]1CC[C@@]2(C)C(=CC[C@H]3[C@@H]4CC[C@H]([C@H](C)CCCC(C)C)[C@@]4(C)CC[C@@H]32)C1 [Example C1, Cholesterol acetate] | 0 %-rel | 0 %-rel | 0 %-rel | 33 %-rel | 59 %-rel
CC(C)CCC[C@@H](C)[C@H]1CC[C@H]2[C@@H]3CC=C4C[C@@H](OS(=O)(=O)[O-])CC[C@]4(C)[C@H]3CC[C@]12C.[Na+] [Example 1, Cholesterol sulfate, sodium salt] | 49 %-rel | 92 %-rel | 100 %-rel | – | –
Phytosterol phosphate [Example C3] | 0 %-rel | 0 %-rel | 0 %-rel | 0 %-rel | 30 %-rel
Phytosterol sulfate, sodium salt [Example 2] | 31 %-rel | 64 %-rel | 98 %-rel | – | –
